# Results reported in PubChem BioAssay AID1963962 (Molecular Pharmacology Branch, DTP, NCI, 2024).
# “And” between values parts separate entries of the source, which are not always exact repeats. Equal entries are not always repeated.
# Tested on: 967376-340-R-J2-PDC multicell spheroid viability
# Assay: Anticancer human tumor 967376-340-R-J2-PDC patient-derived colon adenocarcinoma cell line growth inhibition [PI3K]
# Conditions: for viability, T/C: stronger effect = lower value
# Summary of the method: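 Spheroid viability read-out. Co-cultures contained the tumor line plus HUVEC and human MSCs. Each agent was paired with a PI3K inhibitor (inavolisib, alpelisib, duvelisib, copanlisib) across half-log dilutions starting at clinical Cmax, or at 10 microM when Cmax was unknown.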
# [1] = curve of first compound, second compound 0.0316 µM
# [2] = curve of first compound, second compound 0.1 µM
# [3] = curve of first compound, second compound 0.316 µM
# [4] = curve of first compound, second compound 1 µM
# [5] = curve of first compound, second compound 3.16 µM
# [6] = curve of first compound, second compound 10 µM
# [7] = second compound 0.0316 µM, first compound 0.0316 µM
# [8] = second compound 0.0316 µM, first compound 0.1 µM
# [9] = second compound 0.0316 µM, first compound 0.316 µM
# [10] = second compound 0.0316 µM, first compound 1 µM
# [11] = second compound 0.0316 µM, first compound 3.16 µM
# [12] = second compound 0.0316 µM, first compound 10 µM
# [13] = second compound 0.1 µM, first compound 0.0316 µM
# [14] = second compound 0.1 µM, first compound 0.1 µM
# [15] = second compound 0.1 µM, first compound 0.316 µM
# [16] = second compound 0.1 µM, first compound 1 µM
# [17] = second compound 0.1 µM, first compound 3.16 µM
# [18] = second compound 0.1 µM, first compound 10 µM
# [19] = second compound 0.316 µM, first compound 0.0316 µM
# [20] = second compound 0.316 µM, first compound 0.1 µM
# [21] = second compound 0.316 µM, first compound 0.316 µM
# [22] = second compound 0.316 µM, first compound 1 µM
# [23] = second compound 0.316 µM, first compound 3.16 µM
# [24] = second compound 0.316 µM, first compound 10 µM
# [25] = second compound 1 µM, first compound 0.0316 µM
# [26] = second compound 1 µM, first compound 0.1 µM
# [27] = second compound 1 µM, first compound 0.316 µM
# [28] = second compound 1 µM, first compound 1 µM
# [29] = second compound 1 µM, first compound 3.16 µM
# [30] = second compound 1 µM, first compound 10 µM
# [31] = second compound 3.16 µM, first compound 0.0316 µM
# [32] = second compound 3.16 µM, first compound 0.1 µM
# [33] = second compound 3.16 µM, first compound 0.316 µM
# [34] = second compound 3.16 µM, first compound 1 µM
# [35] = second compound 3.16 µM, first compound 3.16 µM
# [36] = second compound 3.16 µM, first compound 10 µM
# [37] = second compound 10 µM, first compound 0.0316 µM
# [38] = second compound 10 µM, first compound 0.1 µM
# [39] = second compound 10 µM, first compound 0.316 µM
# [40] = second compound 10 µM, first compound 1 µM
# [41] = second compound 10 µM, first compound 3.16 µM
# [42] = second compound 10 µM, first compound 10 µM
# [43] = second compound 0.0316 µM, first compound 0.000316 µM
# [44] = second compound 0.0316 µM, first compound 0.001 µM
# [45] = second compound 0.0316 µM, first compound 0.00316 µM
# [46] = second compound 0.0316 µM, first compound 0.01 µM
# [47] = second compound 0.1 µM, first compound 0.000316 µM
# [48] = second compound 0.1 µM, first compound 0.001 µM
# [49] = second compound 0.1 µM, first compound 0.00316 µM
# [50] = second compound 0.1 µM, first compound 0.01 µM
# [51] = second compound 0.316 µM, first compound 0.000316 µM
# [52] = second compound 0.316 µM, first compound 0.001 µM
# [53] = second compound 0.316 µM, first compound 0.00316 µM
# [54] = second compound 0.316 µM, first compound 0.01 µM
# [55] = second compound 1 µM, first compound 0.000316 µM
# [56] = second compound 1 µM, first compound 0.001 µM
# [57] = second compound 1 µM, first compound 0.00316 µM
# [58] = second compound 1 µM, first compound 0.01 µM
# 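Further: spheroids exposed to agents for 7 days before read-out.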
# 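Wherever viability, T/C is given: luminescence used as surrogate of cell viability.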
smiles,measurement,setting,value
C#Cc1c(F)ccc2cc(O)cc(-c3ncc4c(N5CC6CCC(C5)N6)nc(OCC56CCCN5CC(F)C6)nc4c3F)c12 (stereo not given) + CC(Nc1ncnc2nc[nH]c12)c1cc2cccc(Cl)c2c(=O)n1-c1ccccc1,IC50,[1],> 10 µM
same,IC50,[2],> 10 µM
same,IC50,[3],> 10 µM
same,IC50,[4],> 10 µM
same,IC50,[5],> 10 µM
same,IC50,[6],> 10 µM
same,"viability, T/C",[7],103%
same,"viability, T/C",[8],113%
same,"viability, T/C",[9],94.2%
same,"viability, T/C",[10],85.8%
same,"viability, T/C",[11],85.5%
same,"viability, T/C",[12],53.8%
same,"viability, T/C",[13],99.8%
same,"viability, T/C",[14],110%
same,"viability, T/C",[15],80.5%
same,"viability, T/C",[16],97.5%
same,"viability, T/C",[17],77%
same,"viability, T/C",[18],88.9%
same,"viability, T/C",[19],104%
same,"viability, T/C",[20],97.2%
same,"viability, T/C",[21],99.7%
same,"viability, T/C",[22],90.6%
same,"viability, T/C",[23],99.5%
same,"viability, T/C",[24],78.8%
same,"viability, T/C",[25],96.5%
same,"viability, T/C",[26],110%
same,"viability, T/C",[27],109%
same,"viability, T/C",[28],93%
same,"viability, T/C",[29],72.8%
same,"viability, T/C",[30],70.8%
same,"viability, T/C",[31],106%
same,"viability, T/C",[32],92.4%
same,"viability, T/C",[33],94.6%
same,"viability, T/C",[34],71.2%
same,"viability, T/C",[35],78.3%
same,"viability, T/C",[36],71.8%
same,"viability, T/C",[37],84.1%
same,"viability, T/C",[38],76.8%
same,"viability, T/C",[39],78.8%
same,"viability, T/C",[40],61.6%
same,"viability, T/C",[41],59.5%
same,"viability, T/C",[42],61.5%
C[C@@H](NC(=O)c1ncnc(N)c1Cl)c1ncc(C(=O)Nc2cc(C(F)(F)F)c(Cl)cn2)s1 + CC(Nc1ncnc2nc[nH]c12)c1cc2cccc(Cl)c2c(=O)n1-c1ccccc1,IC50,[1],> 10 µM
same,IC50,[2],> 10 µM
same,IC50,[3],> 10 µM
same,IC50,[4],> 10 µM
same,IC50,[5],> 10 µM
same,IC50,[6],> 10 µM
same,"viability, T/C",[7],100%
same,"viability, T/C",[8],129%
same,"viability, T/C",[9],109%
same,"viability, T/C",[10],104%
same,"viability, T/C",[11],101%
same,"viability, T/C",[12],98.9%
same,"viability, T/C",[13],123%
same,"viability, T/C",[14],112%
same,"viability, T/C",[15],90.5%
same,"viability, T/C",[16],102%
same,"viability, T/C",[17],110%
same,"viability, T/C",[18],117%
same,"viability, T/C",[19],92.5%
same,"viability, T/C",[20],102%
same,"viability, T/C",[21],109%
same,"viability, T/C",[22],107%
same,"viability, T/C",[23],96.9%
same,"viability, T/C",[24],110%
same,"viability, T/C",[25],114%
same,"viability, T/C",[26],97.8%
same,"viability, T/C",[27],99.7%
same,"viability, T/C",[28],90.7%
same,"viability, T/C",[29],127%
same,"viability, T/C",[30],106%
same,"viability, T/C",[31],95.9%
same,"viability, T/C",[32],92.2%
same,"viability, T/C",[33],106%
same,"viability, T/C",[34],92.8%
same,"viability, T/C",[35],97.3%
same,"viability, T/C",[36],113%
same,"viability, T/C",[37],79.7%
same,"viability, T/C",[38],97.2%
same,"viability, T/C",[39],106%
same,"viability, T/C",[40],97.1%
same,"viability, T/C",[41],107%
same,"viability, T/C",[42],119%
C#Cc1c(F)ccc2cc(O)cc(-c3ncc4c(N5CC6CCC(C5)N6)nc(OCC56CCCN5CC(F)C6)nc4c3F)c12 (stereo not given),"viability, T/C",compound 0.0316 µM,106% [middle of 4 runs]
same,"viability, T/C",compound 0.1 µM,109% and 101% (2×) and 92.1%
same,"viability, T/C",compound 3.16 µM,91.7% [middle of 4 runs]
same,IC50,curve of compound,> 10 µM
CC(C)n1nc(-c2ccc3oc(N)nc3c2)c2c(N)ncnc21 + COc1c(OCCCN2CCOCC2)ccc2c3n(c(=NC(=O)c4cnc(N)nc4)nc12)CCN3,IC50,"curve of first compound, second compound 0.00316 µM",> 0.1 µM
same,IC50,"curve of first compound, second compound 0.01 µM",0.0981 µM
same,IC50,[1],0.0329 µM
same,IC50,[2],0.0177 µM
same,IC50,[3],0.000541 µM
same,IC50,[4],< 0.000316 µM
same,"viability, T/C","second compound 0.00316 µM, first compound 0.000316 µM",85.7%
same,"viability, T/C","second compound 0.00316 µM, first compound 0.001 µM",106%
same,"viability, T/C","second compound 0.00316 µM, first compound 0.00316 µM",88.7%
same,"viability, T/C","second compound 0.00316 µM, first compound 0.01 µM",74.1%
same,"viability, T/C","second compound 0.00316 µM, first compound 0.0316 µM",76.5%
same,"viability, T/C","second compound 0.00316 µM, first compound 0.1 µM",54.8%
same,"viability, T/C","second compound 0.01 µM, first compound 0.000316 µM",109%
same,"viability, T/C","second compound 0.01 µM, first compound 0.001 µM",97.2%
same,"viability, T/C","second compound 0.01 µM, first compound 0.00316 µM",81%
same,"viability, T/C","second compound 0.01 µM, first compound 0.01 µM",91.1%
same,"viability, T/C","second compound 0.01 µM, first compound 0.0316 µM",67.3%
same,"viability, T/C","second compound 0.01 µM, first compound 0.1 µM",47.1%
same,"viability, T/C",[43],85.9%
same,"viability, T/C",[44],83.9%
same,"viability, T/C",[45],65.4%
same,"viability, T/C",[46],63.8%
same,"viability, T/C",[7],50%
same,"viability, T/C",[8],39.9%
same,"viability, T/C",[47],58%
same,"viability, T/C",[48],49.5%
same,"viability, T/C",[49],53.9%
same,"viability, T/C",[50],51.5%
same,"viability, T/C",[13],47.9%
same,"viability, T/C",[14],27%
same,"viability, T/C",[51],61.5%
same,"viability, T/C",[52],36.3%
same,"viability, T/C",[53],38%
same,"viability, T/C",[54],41.4%
same,"viability, T/C",[19],37.2%
same,"viability, T/C",[20],21.9%
same,"viability, T/C",[55],34.9%
same,"viability, T/C",[56],28.2%
same,"viability, T/C",[57],32.1%
same,"viability, T/C",[58],29.8%
same,"viability, T/C",[25],31.6%
same,"viability, T/C",[26],26.5%
CC(C)n1nc(-c2ccc3oc(N)nc3c2)c2c(N)ncnc21 + CC(Nc1ncnc2nc[nH]c12)c1cc2cccc(Cl)c2c(=O)n1-c1ccccc1,IC50,[1],> 0.1 µM
same,IC50,[2],> 0.1 µM
same,IC50,[3],> 0.1 µM
same,IC50,[4],> 0.1 µM
same,IC50,[5],> 0.1 µM
same,IC50,[6],> 0.1 µM
same,"viability, T/C",[43],109%
same,"viability, T/C",[44],92.2%
same,"viability, T/C",[45],96.6%
same,"viability, T/C",[46],98.6%
same,"viability, T/C",[7],97.5%
same,"viability, T/C",[8],59.1%
same,"viability, T/C",[47],90.1%
same,"viability, T/C",[48],94.5%
same,"viability, T/C",[49],90.6%
same,"viability, T/C",[50],103%
same,"viability, T/C",[13],80.8%
same,"viability, T/C",[14],69.9%
same,"viability, T/C",[51],113%
same,"viability, T/C",[52],104%
same,"viability, T/C",[53],99.9%
same,"viability, T/C",[54],98.5%
same,"viability, T/C",[19],77%
same,"viability, T/C",[20],54.7%
same,"viability, T/C",[55],124%
same,"viability, T/C",[56],97%
same,"viability, T/C",[57],89.9%
same,"viability, T/C",[58],90.1%
same,"viability, T/C",[25],71%
same,"viability, T/C",[26],53%
same,"viability, T/C","second compound 3.16 µM, first compound 0.000316 µM",101%
same,"viability, T/C","second compound 3.16 µM, first compound 0.001 µM",94.3%
same,"viability, T/C","second compound 3.16 µM, first compound 0.00316 µM",93.9%
same,"viability, T/C","second compound 3.16 µM, first compound 0.01 µM",80.4%
same,"viability, T/C",[31],81.3%
same,"viability, T/C",[32],62.2%
same,"viability, T/C","second compound 10 µM, first compound 0.000316 µM",93%
same,"viability, T/C","second compound 10 µM, first compound 0.001 µM",81.4%
same,"viability, T/C","second compound 10 µM, first compound 0.00316 µM",76.7%
same,"viability, T/C","second compound 10 µM, first compound 0.01 µM",88%
same,"viability, T/C",[37],73.3%
same,"viability, T/C",[38],61.3%
Cn1cnc2c(F)c(Nc3ccc(Br)cc3Cl)c(C(=O)NOCCO)cc21,"viability, T/C",compound 0.00949 µM,89.9% [middle of 4 runs]
same,"viability, T/C",compound 0.03 µM,97.7% [middle of 4 runs]
same,"viability, T/C",compound 0.0949 µM,87.6% [middle of 4 runs]
